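In this assay, cells in 96-well plates receive the compound at five concentrations for 48 hours. Endpoints are linearly interpolated between the surrounding concentrations. GI50 = concentration required for 50% inhibition of growth.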 Calls of active or inactive are those of the source. Rule as the data show it: active = GI50 up to about 1.1 µM and inactive = higher.
What was measured:
Test in all cases: NCI tumour cell line growth inhibition, 48 h
UO-31 = test system: UO-31
SF-268 = test system: SF-268
Malme-3M = test system: Malme-3M
SNB-75 = test system: SNB-75
HCT-116 = test system: HCT-116
U-251 = test system: U-251
HCC 2998 = test system: HCC 2998
OVCAR-3 = test system: OVCAR-3
HCT-15 = test system: HCT-15
KM12 = test system: KM12
M14 = test system: M14
UACC-257 = test system: UACC-257
SNB-19 = test system: SNB-19
SK-MEL-5 = test system: SK-MEL-5
A498 = test system: A498
UACC-62 = test system: UACC-62
OVCAR-5 = test system: OVCAR-5
PC-3 = test system: PC-3
MDA-MB-435 = test system: MDA-MB-435
MDA-MB-231 = test system: MDA-MB-231

SMILES | GI50 (UO-31) | GI50 (SF-268) | GI50 (Malme-3M) | GI50 (SNB-75) | GI50 (HCT-116) | GI50 (U-251) | GI50 (HCC 2998) | GI50 (OVCAR-3) | GI50 (HCT-15) | GI50 (KM12) | GI50 (M14) | GI50 (UACC-257) | GI50 (SNB-19) | GI50 (SK-MEL-5) | GI50 (A498) | GI50 (UACC-62) | GI50 (OVCAR-5) | GI50 (PC-3) | GI50 (MDA-MB-435) | GI50 (MDA-MB-231)
O=C1[C@H]2ON(c3ccccc3)C(c3ccc([N+](=O)[O-])cc3)[C@H]2C(=O)N1c1ccc(Cc2ccc(N3C(=O)[C@@H]4ON(c5ccccc5)C(c5ccc([N+](=O)[O-])cc5)[C@@H]4C3=O)cc2)cc1 (stereo not given in full) | > 100 µM (inactive) | > 100 µM (inactive) | 58.6 µM (inactive) | > 100 µM (inactive) | > 100 µM (inactive) | > 100 µM (inactive) | > 100 µM (inactive) | > 100 µM (inactive) | > 100 µM | > 100 µM (inactive) | 13.5 µM (inactive) | 98.9 µM (inactive) | > 100 µM (inactive) | 40.1 µM (inactive) | > 100 µM (inactive) | 67.3 µM (inactive) | > 100 µM (inactive) |  |  | 
O=C(C(O)c1cn(Cc2ccccc2)c2ccccc12)N1CCCCC1 (stereo not given) | > 100 µM (inactive) | 83.2 µM (inactive) | > 100 µM (inactive) | > 100 µM (inactive) | > 100 µM (inactive) | > 10 µM (inactive) | > 100 µM (inactive) | 50 µM (inactive) | 76.4 µM | > 100 µM (inactive) | > 100 µM (inactive) | 48.9 µM (inactive) | > 100 µM (inactive) | 30.1 µM (inactive) | > 100 µM (inactive) | 95.1 µM (inactive) | > 100 µM (inactive) |  |  | 
Cc1ccccc1NC(=O)c1c(C)oc2c1C(=O)c1ccccc1C2=O | > 85.3 µM (inactive) | 31.8 µM (inactive) | 10.2 µM (inactive) | 39.7 µM (inactive) | 32.1 µM (inactive) | 7.89 µM (inactive) | 51.5 µM (inactive) | 14.4 µM (inactive) | 32.1 µM | 30.9 µM (inactive) | 20.9 µM (inactive) | 21.4 µM (inactive) | 35.6 µM (inactive) | 13.2 µM (inactive) | 63.5 µM (inactive) | 22 µM (inactive) | > 100 µM (inactive) |  |  | 
CC(C)(C)OC(=O)C1/C(=C/CO)CN1C(=O)OC(C)(C)C (stereo not given) | > 100 µM (inactive) | > 100 µM (inactive) | > 100 µM (inactive) |  | > 100 µM (inactive) |  | > 100 µM (inactive) | > 100 µM (inactive) | > 100 µM |  | > 100 µM (inactive) | > 100 µM (inactive) | > 100 µM (inactive) | > 100 µM (inactive) | > 100 µM (inactive) | > 100 µM (inactive) | > 100 µM (inactive) | > 100 µM (inactive) | > 100 µM (inactive) | 
O=C(COc1cc(=O)oc2ccccc12)c1ccccc1 | > 10 µM (inactive) | 48.5 µM (inactive) | > 100 µM (inactive) | 26.4 µM (inactive) | 17.9 µM (inactive) | 17.7 µM (inactive) | > 100 µM (inactive) | 19.4 µM (inactive) | > 100 µM | 37.9 µM (inactive) | 42 µM (inactive) | > 100 µM (inactive) | 21.7 µM (inactive) | 37.7 µM (inactive) | 60.7 µM (inactive) | 16.7 µM (inactive) | > 100 µM (inactive) |  |  | 83.8 µM (inactive)
O=C1C(Cl)=C(Cl)C(=O)C(CCNc2nccs2)=C1Cl | 21.2 µM (inactive) | 38.6 µM (inactive) | 20.4 µM (inactive) | 23.3 µM (inactive) | 28.2 µM (inactive) | 36.3 µM (inactive) | > 100 µM (inactive) | 25.8 µM (inactive) | 20.4 µM | 32.7 µM (inactive) | 20.2 µM (inactive) | 21.1 µM (inactive) | > 100 µM (inactive) | 19.5 µM (inactive) |  | 20.7 µM (inactive) | 44.3 µM (inactive) | 18.5 µM (inactive) | 21.4 µM (inactive) | 
O=C(Cc1cc[n+]([O-])cc1)C(=O)Nc1cc(Cl)c(Cl)cc1Cl | > 100 µM (inactive) | > 100 µM (inactive) | > 100 µM (inactive) | 77.1 µM (inactive) | > 100 µM (inactive) | > 100 µM (inactive) | > 100 µM (inactive) | > 100 µM (inactive) | > 100 µM | > 100 µM (inactive) | > 100 µM (inactive) | > 100 µM (inactive) | > 100 µM (inactive) | > 100 µM (inactive) | > 100 µM (inactive) | > 100 µM (inactive) | > 100 µM (inactive) |  |  | 
O=C1C=C(Nc2ccc(S(=O)(=O)Nc3ncccn3)cc2)c2ccccc2C1=O | 24 µM (inactive) | 28.5 µM (inactive) | 23.9 µM (inactive) | 25.1 µM (inactive) | 18.9 µM (inactive) | 17.6 µM (inactive) | 18 µM (inactive) | 14.6 µM (inactive) | 22.5 µM | 18.4 µM (inactive) | 18.2 µM (inactive) | 20.1 µM (inactive) | 31.2 µM (inactive) | 18.2 µM (inactive) | 30.3 µM (inactive) | 17.9 µM (inactive) | 19.5 µM (inactive) |  |  | 
CCOC(=O)c1ccn2c(c1)c(C#N)c1nc3ccccc3nc12 | 42.4 µM (inactive) | > 100 µM (inactive) | 76 µM (inactive) | 13.3 µM (inactive) | 46.8 µM (inactive) | 76.7 µM (inactive) | 53.1 µM (inactive) | > 100 µM (inactive) | 41.6 µM | 51.6 µM (inactive) | > 100 µM (inactive) | > 100 µM (inactive) | 61 µM (inactive) | 35.6 µM (inactive) | 85.5 µM (inactive) | 0.908 µM (active) | > 100 µM (inactive) |  |  | 
C(=N\c1cc2cc(Sc3ccccc3)ccc2[nH]1)/c1ccccc1 |  | > 12.5 µM (inactive) | > 12.5 µM (inactive) | > 12.5 µM (inactive) | > 12.5 µM (inactive) |  | 6.41 µM (inactive) | > 12.5 µM (inactive) | > 12.5 µM | 0.0931 µM (active) | > 12.5 µM (inactive) | > 12.5 µM (inactive) | > 12.5 µM (inactive) | 10.6 µM (inactive) | 1.83 µM (inactive) | 7.11 µM (inactive) |  | > 12.5 µM (inactive) | 4.28 µM (inactive) | 
CCOC(=O)C1=C(OC(OCC)C(C)[Se]c2ccccc2)CCC1 (stereo not given) | 24.7 µM (inactive) | 13.3 µM (inactive) | 28.1 µM (inactive) | 30.1 µM (inactive) | 18.9 µM (inactive) | 6.78 µM (inactive) | 78.3 µM (inactive) | 14.7 µM (inactive) | 17.5 µM | 59 µM (inactive) | 20.5 µM (inactive) | 39.7 µM (inactive) | 36.1 µM (inactive) | 19.1 µM (inactive) | > 100 µM (inactive) | 15.2 µM (inactive) | 51.2 µM (inactive) |  |  | 
CCCCOc1ccc(S(=O)(=O)/N=C(\NN)Nc2ccc(Cl)cc2)cc1 | 18.2 µM (inactive) | 17.4 µM (inactive) | 26.9 µM (inactive) | 12.2 µM (inactive) | 20 µM (inactive) | 16.4 µM (inactive) |  | 20.8 µM (inactive) | 36 µM | 32.7 µM (inactive) | 24.2 µM (inactive) | 23.1 µM (inactive) | 53.5 µM (inactive) | 35.9 µM (inactive) | 47.1 µM (inactive) | > 100 µM (inactive) | 21 µM (inactive) | 17.7 µM (inactive) |  | 20.2 µM (inactive)

— ChEMBL document CHEMBL1201862, “PubChem BioAssay data set” (2004)
